Laboratory results taken from patent US20100022559A1, “BISOXIMES AS FUNGICIDES” (BAYER CROPSCIENCE AG, priority 2006, published 2010).

Assay: logP determination by HPLC on a reversed-phase column (C 18), EEC Directive 79/831 Annex V.A8
Assay type: physicochemical
Settings: method marked [a] in Table 1
Experimental: The stated logP values were determined in accordance with EEC Directive 79/831 Annex V.A8 by HPLC (high performance liquid chromatography) on a reversed-phase column (C 18). Temperature: 43° C.

logP | SMILES
7.36^[a] | CC(=NOCC(C)(C)CON=C(C)c1cccc(-c2ccccc2)n1)c1cccc(-c2ccccc2)n1 [Compound 575]

Same assay, conditions: method marked [b] in Table 1

logP | SMILES
3.22^[b] | CC(=NOCC(CON=C(C)c1nc(C)ccc1C)C(C)(C)C)c1nc(C)ccc1C (single isomer, unassigned) [compound 756]
2.23^[b] | Cc1cc(C)nc(/C(N)=N/OCc2ccccc2CO/N=C(\N)c2nc(C)cc(C)n2)n1 [compound 700]

Same assay, conditions: method marked [c] in Table 1

logP | SMILES
5.20^[c] | CC(=NOCC(CON=C(C)c1nc(C)ccc1C)C(C)(C)C)c1nc(C)ccc1C (single isomer, unassigned) [compound 756]

Same assay, conditions: method marker [a] (footnote not shown); isomer A / isomer B / isomer mixture as noted in the cell

SMILES | logP
C=CCCC(=NOCCCON=C(CCC=C)c1ncccc1C)c1ncccc1C [compound 129] | 4.59^[a]
Cc1cccc(C(CC(C)C)=NOCCCON=C(CC(C)C)c2cccc(C)n2)n1 (single isomer, unassigned) [Compound 115] | 7.08^[a] (isomer B)

Now from value to compound:

logP | SMILES
4.28^[a] | Cc1cccnc1C(=NOCC(C)CON=C(c1ncccc1C)C(C)C)C(C)C (mixture of isomers) [compound 103]
2.99^[a] | CC(=NOCC(C)CON=C(C)c1ccc(C)c(C)n1)c1ccc(C)c(C)n1 (centres unmarked) [Compound 118]
6.41^[a] | CC(=NOCC(C)CON=C(C)c1cccc(C(F)(F)F)n1)c1cccc(C(F)(F)F)n1 (centres unmarked) [Compound 169]
4.88^[a] | CCC(=NOCC(C)CON=C(CC)c1ccc(C)c(C)n1)c1ccc(C)c(C)n1 (centres unmarked) [Compound 235]

Same assay, conditions: method marker [b]; isomer A / isomer B / isomer mixture as noted in the cell

SMILES | logP
CC(=NOCCOCCON=C(C)c1cccc(C)n1)c1cccc(C)n1 [Compound 181] | 1.84^[b]
C=C(CON=C(C)c1cccc(C)n1)CON=C(C)c1nc(C)cc(C)n1 [Compound 188] | 2.69^[b]
Cc1cc(C)nc(/C(N)=N/OCO/N=C(\N)c2nc(C)cc(C)n2)n1 [compound 5] | 1.49^[b]
C=C(CON=C(C)c1cccc(C)n1)CON=C(N)c1ncc(Cl)cc1Cl [compound 246] | 3.00^[b]
CC(=NOCCCCON=C(C)c1ccccn1)c1ccccn1 [compound 124] | 3.00^[b]

The next lines start with the values.

logP | SMILES
2.61^[b] | C=C(CON=C(C)c1cccc(C)n1)CON=C(N)c1nc(C)c(Cl)c(C)n1 [compound 184]
5.03^[b] | C=C(CON=C(C)c1cccc(C)c1)CON=C(C)c1cccc(C)n1 [compound 205]

Same assay, conditions: reversed-phase HPLC column (C 18); HCO2H; HPLC reversed-phase column (C 18), 43° C.; read-out: logP (HCO2H)

chromatographic logP | SMILES
1.91 | C/C(=N\OCC(CO/N=C(\C)c1cccc(C)n1)=NO)c1cccc(C)n1 [(2E,9E)-2,10-bis(6-methylpyridin-2-yl)-4,8-dioxa-3,9-diazaundeca-2,9-dien-6-one oxime]

Same assay, conditions: value marked [a]

logP | SMILES
4.82^[a] | Cc1ccc(C(=NOCC(C)CON=C(c2ccc(C)c(C)n2)C(C)C)C(C)C)nc1C (mixture of isomers) [compound 299]
4.87^[a] (isomer B) | C=C(CON=C(c1cccc(C)n1)C(C)C)CON=C(c1cccc(C)n1)C(C)C (single isomer, unassigned) [compound 274]

Same assay, conditions: value marked [b]

SMILES | logP
CC(=NOCC(C)CON=C(C)c1cccc([Si](C)(C)C)n1)c1ccccn1 (centres unmarked) [Compound 826] | 6.72^[b]
CC(=NOCCCCON=C(C)c1cccc(C)n1)c1cncc(C)c1 [compound 337] | 2.20^[b]
C=C(CON=C(C)c1cccc(C)n1)CON=C(c1ccccc1)c1cccc(C)n1 [compound 357] | 3.65^[b]
CC(=NOCCCCCCON=C(C)c1cccc(CC(C)C)n1)c1cccc(C)n1 [compound 342] | 7.36^[b]
CCC(C)(CON=C(C)c1ccc(C)c(C)n1)CON=C(C)c1ccc(C)c(C)n1 (centres unmarked) [Compound 793] | 5.39^[b]

Continued, values first:

logP | SMILES
6.33^[b] | CCC(=NOCC(C)CON=C(CC)c1cccc(CC)n1)c1cccc(CC)n1 (mixture of isomers) [compound 263]
5.19^[b] | CC(=NOCCCCON=C(C)c1cccc2ccccc12)c1cccc(C)n1 [compound 383]
3.85^[b] | CCOC(=O)C(C)(CON=C(C)c1ccc(C)c(C)n1)CON=C(C)c1ccc(C)c(C)n1 (centres unmarked) [compound 854]
4.77^[b] | CC(=NOCC1(CON=C(C)c2cccc(C)n2)CCC1)c1cccc(C)n1 [Compound 289]

Same assay, conditions: value marked [c]

logP | SMILES
7.29^[c] | CC(=NOCC(C)CON=C(C)c1cccc([Si](C)(C)C)n1)c1ccccn1 (centres unmarked) [Compound 826]
5.82^[c] | CCOC(=O)C(C)(CON=C(C)c1ccc(C)c(C)n1)CON=C(C)c1ccc(C)c(C)n1 (centres unmarked) [compound 854]
7.27^[c] | CCC(C)(CON=C(C)c1ccc(C)c(C)n1)CON=C(C)c1ccc(C)c(C)n1 (centres unmarked) [Compound 793]
